Source: publication PMC3366211, “Leishmanicidal Activity of Nine Novel Flavonoids from Delphinium staphisagria” (The Scientific World Journal, 2012)

Key:
[1] = system: L. infantum promastigote forms; assay: Promastigote forms assay; format: cell-based, Leishmania infantum; settings: for SI Promastigote forms: IC50 macrophages/IC50 parasite form; for IC50: Leishmania infantum, 72 h; for times SI exceeds the reference drug SI (all forms): extracellular and intracellular forms; for times SI exceeds the reference drug SI (all forms) / number of times that compound SI exceeds the reference drug SI, Promastigote forms: reference Glucantime; for number of times that compound SI exceeds the reference drug SI, Promastigote forms: in brackets
Protocol: (§1) The compounds obtained were dissolved in the culture medium, at dosages of 100, 50, 25, 10, and 1 μM. The effects of each compound against promastigote forms were tested at 72 hours using a Neubauer haemocytometric chamber. The antileishmanial effect is expressed as the IC50, that is, the concentration required to give 50% inhibition, calculated by linear regression analysis from the Kc values of the concentrations employed.

[2] = system: L. braziliensis promastigote forms; assay: Promastigote forms assay; format: cell-based, Leishmania braziliensis; settings: for SI Promastigote forms: IC50 macrophages/IC50 parasite form; for IC50: Leishmania braziliensis, 72 h; for number of times that compound SI exceeds the reference drug SI, Promastigote forms: in brackets, reference Glucantime
Protocol: as §1

[3] = system: L. infantum axenic amastigote forms; assay: Axenic amastigote forms assay; format: cell-based, Leishmania infantum; settings: for SI Axenic amastigote forms: IC50 macrophages/IC50 parasite form; for IC50: Leishmania infantum, 48 hours per method (72 h); for number of times that compound SI exceeds the reference drug SI, Axenic amastigote forms: in brackets, reference Glucantime
[4] = system: L. braziliensis axenic amastigote forms; assay: Axenic amastigote forms assay; format: cell-based, Leishmania braziliensis; settings: for SI Axenic amastigote forms: IC50 macrophages/IC50 parasite form; for IC50: Leishmania braziliensis, 48 hours per method (72 h); for number of times that compound SI exceeds the reference drug SI, Axenic amastigote forms: in brackets, reference Glucantime
[5] = system: L. infantum intracellular amastigote forms; assay: Intracellular amastigote forms assay in J774.2 macrophages; format: cell-based, Leishmania infantum; settings: for SI Intracellular amastigote forms / number of times that compound SI exceeds the reference drug SI, Intracellular amastigote forms: L. infantum; for SI Intracellular amastigote forms: IC50 macrophages/IC50 parasite form; for number of times that compound SI exceeds the reference drug SI, Intracellular amastigote forms: in brackets, reference Glucantime; for IC50: Leishmania infantum, L. infantum in J774.2 macrophages, 72 h
[6] = system: L. braziliensis intracellular amastigote forms; assay: as above; format: cell-based, Leishmania braziliensis; settings: for SI Intracellular amastigote forms / number of times that compound SI exceeds the reference drug SI, Intracellular amastigote forms: L. braziliensis; for SI Intracellular amastigote forms: IC50 macrophages/IC50 parasite form; for number of times that compound SI exceeds the reference drug SI, Intracellular amastigote forms: in brackets, reference Glucantime; for IC50: Leishmania braziliensis, L. braziliensis in J774.2 macrophages, 72 h
J774.2 macrophages = assay: Cytotoxicity test for macrophages (flow cytometry); format: cell-based, BALB/c rat; settings: Mus musculus, J774.2, 72 h, J774.2 macrophages after 72 h of culture; read-out: Macrophage toxicity IC50
[7] = system: epimastigote forms of Trypanosoma cruzi; parameters: method as in PMID 21466157; settings: cited from earlier work

Row | SMILES | SI Promastigote forms [1] | IC50 [1] | times SI exceeds the reference drug SI (all forms) [1] | number of times that compound SI exceeds the reference drug SI, Promastigote forms [1] | SI Promastigote forms [2] | IC50 [2] | number of times that compound SI exceeds the reference drug SI, Promastigote forms [2] | SI Axenic amastigote forms [3] | IC50 [3] | number of times that compound SI exceeds the reference drug SI, Axenic amastigote forms [3] | SI Axenic amastigote forms [4] | IC50 [4] | number of times that compound SI exceeds the reference drug SI, Axenic amastigote forms [4] | SI Intracellular amastigote forms [5] | number of times that compound SI exceeds the reference drug SI, Intracellular amastigote forms [5] | IC50 [5] | SI Intracellular amastigote forms [6] | number of times that compound SI exceeds the reference drug SI, Intracellular amastigote forms [6] | IC50 [6] | IC50 (J774.2 macrophages) | further results
1 | O=c1c(O[C@@H]2O[C@H](CO)[C@@H](O)[C@H](O)[C@H]2O)c(-c2ccc(O)cc2)oc2cc(O)cc(O)c12 [Compound 1, astragalin] | 6.7 | 35.1 ± 3.3 µM | < 50 times | 8 | 8.4 | 28.1 ± 1 µM | 14 | 8.1 | 29.2 ± 2.8 µM | 14 | 10.4 | 22.6 ± 1.7 µM | 21 | 5.1 | 10 | 45.9 ± 2.7 µM | 7.3 | 15 | 32.2 ± 1.6 µM | 236 ± 17.9 µM | IC50 compared with benznidazole [7]: significantly lower IC50 values compared with benznidazole
2 | CC(=O)O[C@H]1[C@H](Oc2c(-c3ccc(O)cc3)oc3cc(O)cc(O)c3c2=O)O[C@H](CO)[C@@H](O)[C@@H]1O [Compound 2] | 7.8 | 34.1 ± 1.6 µM | < 50 times | 10 | 10.6 | 25.1 ± 2.5 µM | 18 | 8.2 | 32.7 ± 5 µM | 14 | 9.6 | 27.9 ± 2.7 µM | 19 | 6.3 | 13 | 42.3 ± 3.9 µM | 8.8 | 18 | 30.2 ± 3.8 µM | 267 ± 11 µM | IC50 compared with benznidazole [7]: significantly lower IC50 values compared with benznidazole
